Results published in PubChem BioAssay AID1745844 (Carcinogenic Potency Database (CPDB), 2022).

Tested on: rodent lifetime carcinogenesis bioassay, tumor incidence TD50
Experiment: carcinogenic potency in animals, long-term in vivo studies, CPDB compilation (AID 1745844)
Details: inhaled

Work on C=CCl yielded a TD50 (hamster, strain Syrian Golden, females, site: all sites, lesion: hemangiosarcoma, dosed 26 weeks, study length 104 weeks) of 78.6 mg/kg/day, a TD50 (hamster, strain Syrian Golden, females, site: all sites, lesion: hemangiosarcoma, dosed 52 weeks, study length 104 weeks) of 314 mg/kg/day and a TD50 (hamster, strain Syrian Golden, females, site: all sites, lesion: hemangiosarcoma, dosed 78 weeks, study length 104 weeks) of 1920 mg/kg/day. For the same compound, the TD50 (hamster, strain Syrian Golden, females, site: mammary gland, lesion: carcinoma, dosed 26 weeks, study length 104 weeks) was 32.3 mg/kg/day, the TD50 (hamster, strain Syrian Golden, females, site: mammary gland, lesion: carcinoma, dosed 52 weeks, study length 104 weeks) was 27.7 mg/kg/day and the TD50 (hamster, strain Syrian Golden, females, site: mammary gland, lesion: carcinoma, dosed 78 weeks, study length 104 weeks) was 61 mg/kg/day. It also gave a TD50 (hamster, strain Syrian Golden, females, site: skin, lesion: carcinoma, dosed 52 weeks, study length 104 weeks) of 121 mg/kg/day, a TD50 (hamster, strain Syrian Golden, females, site: stomach, lesion: adenoma, dosed 26 weeks, study length 104 weeks) of 47.2 mg/kg/day and a TD50 (hamster, strain Syrian Golden, females, site: stomach, lesion: adenoma, dosed 52 weeks, study length 104 weeks) of 1010 mg/kg/day. It also gave a TD50 (hamster, strain Syrian Golden, females, site: stomach, lesion: adenoma, dosed 78 weeks, study length 104 weeks) of 205 mg/kg/day, a TD50 (hamster, strain Syrian Golden, males, site: acoustic duct, lesion: epithelioma, dosed 30 weeks, study length 101 weeks) of 855 mg/kg/day and a TD50 (hamster, strain Syrian Golden, males, site: all sites, lesion: leukemia, dosed 30 weeks, study length 101 weeks) of 25800 mg/kg/day. It also gave a TD50 (hamster, strain Syrian Golden, males, site: extrahepatic tissue, lesion: angioma, dosed 30 weeks, study length 101 weeks) of 9800 mg/kg/day, a TD50 (hamster, strain Syrian Golden, males, site: forestomach, lesion: epithelioma, dosed 30 weeks, study length 101 weeks) of 55 mg/kg/day and a TD50 (hamster, strain Syrian Golden, males, site: liver, lesion: angioma, dosed 30 weeks, study length 101 weeks) of 2380 mg/kg/day. It also gave a TD50 (hamster, strain Syrian Golden, males, site: liver, lesion: angiosarcoma, dosed 30 weeks, study length 101 weeks) of 91800 mg/kg/day, a TD50 (hamster, strain Syrian Golden, males, site: liver, lesion: hepatoma, dosed 30 weeks, study length 101 weeks) of 1730 mg/kg/day and a TD50 (hamster, strain Syrian Golden, males, site: skin, lesion: epithelioma, dosed 30 weeks, study length 101 weeks) of 9350 mg/kg/day. It also gave a TD50 (hamster, strain Syrian Golden, males, site: skin, lesion: melanoma, dosed 30 weeks, study length 101 weeks) of 7630 mg/kg/day, a TD50 (mouse, strain Charles River CD1, females, site: liver, lesion: hemangiosarcoma, dosed 26 weeks, study length 58 weeks) of 91.9 mg/kg/day and a TD50 (mouse, strain Charles River CD1, females, site: lung, lesion: alveolar/bronchiolar tumor, dosed 26 weeks, study length 58 weeks) of 142 mg/kg/day. The TD50 (mouse, strain Charles River CD1, females, site: mammary gland, lesion: malignant tumor, dosed 26 weeks, study length 58 weeks) was 249 mg/kg/day, the TD50 (mouse, strain Charles River CD1, males, site: liver, lesion: hemangiosarcoma, dosed 26 weeks, study length 78 weeks) was 32 mg/kg/day and the TD50 (mouse, strain Charles River CD1, males, site: lung, lesion: alveolar/bronchiolar tumor, dosed 26 weeks, study length 78 weeks) was 88.7 mg/kg/day. It also gave a TD50 (mouse, strain Swiss, females, site: all sites, lesion: hemangiosarcoma, dosed 26 weeks, study length 104 weeks) of 12.5 mg/kg/day, a TD50 (mouse, strain Swiss, females, site: all sites, lesion: hemangiosarcoma, dosed 52 weeks, study length 104 weeks) of 13.8 mg/kg/day and a TD50 (mouse, strain Swiss, females, site: all sites, lesion: hemangiosarcoma, dosed 78 weeks, study length 104 weeks) of 36.1 mg/kg/day. It also gave a TD50 (mouse, strain Swiss, females, site: any site (literature study), lesion: several types, types named in the paper, dosed 30 weeks, study length 77 weeks) of 600 mg/kg/day, a TD50 (mouse, strain Swiss, females, site: extrahepatic tissue, lesion: angioma, dosed 30 weeks, study length 77 weeks) of 70900 mg/kg/day and a TD50 (mouse, strain Swiss, females, site: extrahepatic tissue, lesion: angiosarcoma, dosed 30 weeks, study length 77 weeks) of 736 mg/kg/day. It also gave a TD50 (mouse, strain Swiss, females, site: forestomach, lesion: epithelioma, dosed 30 weeks, study length 77 weeks) of 9820 mg/kg/day, a TD50 (mouse, strain Swiss, females, site: liver, lesion: angioma, dosed 30 weeks, study length 77 weeks) of 196 mg/kg/day and a TD50 (mouse, strain Swiss, females, site: liver, lesion: angiosarcoma, dosed 30 weeks, study length 77 weeks) of 98.8 mg/kg/day. It also gave a TD50 (mouse, strain Swiss, females, site: liver, lesion: hepatoma, dosed 30 weeks, study length 77 weeks) of 12200 mg/kg/day, a TD50 (mouse, strain Swiss, females, site: lung, lesion: adenoma, dosed 30 weeks, study length 77 weeks) of 402 mg/kg/day and a TD50 (mouse, strain Swiss, females, site: lung, lesion: carcinoma, dosed 26 weeks, study length 104 weeks) of 36.6 mg/kg/day. For the same compound, the TD50 (mouse, strain Swiss, females, site: lung, lesion: carcinoma, dosed 52 weeks, study length 104 weeks) was 55.5 mg/kg/day, the TD50 (mouse, strain Swiss, females, site: lung, lesion: carcinoma, dosed 78 weeks, study length 104 weeks) was 143 mg/kg/day and the TD50 (mouse, strain Swiss, females, site: mammary gland, lesion: carcinoma, dosed 26 weeks, study length 104 weeks) was 10.6 mg/kg/day. It also gave a TD50 (mouse, strain Swiss, females, site: mammary gland, lesion: carcinoma, dosed 30 weeks, study length 77 weeks) of 3750 mg/kg/day, a TD50 (mouse, strain Swiss, females, site: mammary gland, lesion: carcinoma, dosed 52 weeks, study length 104 weeks) of 22.9 mg/kg/day and a TD50 (mouse, strain Swiss, females, site: mammary gland, lesion: carcinoma, dosed 78 weeks, study length 104 weeks) of 32.2 mg/kg/day. The TD50 (mouse, strain Swiss, females, site: skin, lesion: epithelioma, dosed 30 weeks, study length 77 weeks) was 25100 mg/kg/day, the TD50 (mouse, strain Swiss, males, site: any site (literature study), lesion: several types, types named in the paper, dosed 30 weeks, study length 77 weeks) was 26.1 mg/kg/day and the TD50 (mouse, strain Swiss, males, site: extrahepatic tissue, lesion: angioma, dosed 30 weeks, study length 77 weeks) was 12300 mg/kg/day. The TD50 (mouse, strain Swiss, males, site: extrahepatic tissue, lesion: angiosarcoma, dosed 30 weeks, study length 77 weeks) was 8030 mg/kg/day, the TD50 (mouse, strain Swiss, males, site: forestomach, lesion: epithelioma, dosed 30 weeks, study length 77 weeks) was 5190 mg/kg/day and the TD50 (mouse, strain Swiss, males, site: liver, lesion: angioma, dosed 30 weeks, study length 77 weeks) was 1080 mg/kg/day. The TD50 (mouse, strain Swiss, males, site: liver, lesion: angiosarcoma, dosed 30 weeks, study length 77 weeks) was 70.8 mg/kg/day, the TD50 (mouse, strain Swiss, males, site: liver, lesion: hepatoma, dosed 30 weeks, study length 77 weeks) was 25200 mg/kg/day and the TD50 (mouse, strain Swiss, males, site: lung, lesion: adenoma, dosed 30 weeks, study length 77 weeks) was 14 mg/kg/day. The TD50 (mouse, strain Swiss, males, site: skin, lesion: epithelioma, dosed 30 weeks, study length 77 weeks) was 2690 mg/kg/day.
